The text below walks through data of patent US20120039888A1, “Methods Of Inhibiting Inflammation-Associated Tissue Damage By Inhibiting Neutrophil Activity” (priority 2008, published 2012).

The subject of experiment [1] is nRBC interactions with adherent leukocytes. The experiment can be described thus: nRBC-leukocyte interactions, brightfield intravital microscopy of TNF-α-inflamed cremasteric venules. To be noted: inhibitor given 120 min after TNF-α: PP2 150 μg/kg, SB203580 100 μg, piceatannol 1 mg; compared to vehicle control (DMSO); FIG. 2f. The experiment is classed as in vivo, mouse (C57BL/6). The procedure: Brightfield intravital microscopy. Brightfield intravital microscopy was performed as previously reported^21,22. For SCD mice, several postcapillary and collecting venules were recorded from 15 min after the surgical preparation (time=0 is surgical section of the cremaster) for 75 minutes (pre-TNF-α), with each venule recorded continuously for at least 2 min. SCD mice were then injected i.p. with 0.5 μg recombinant murine TNF-α (R & D Systems) and then the same venules were videotaped over a period of 90 min (91-180 min), after which venules were recorded again for another 90 min (181-270 min). The role of endothelial selectins was evaluated in identical experiments performed in Selp^−/− or Sele^−/− mice transplanted with BM cells from SCD donor mice, or using antibodies against P- or E-selectin (1 mg/kg) prior to surgery. […] In experiments with non-SCD C57BL/6 mice, TNF-α was administered intrascrotally and images recorded 160-210 min after cytokine injection. […]
Hemodynamic measurements and image analyses for brightfield intravital microscopy. The venular diameter was measured using a video caliper. Centerline RBC velocity was measured for each venule in real time using an optical Doppler velocimeter (Texas A&M, College Station, Tex.). […] Blood flow rate was calculated from the formula: Vmean×π×d^2/4. […]

Experiment [2] deals with Balb/c mice. The experiment can be described thus: Antibody-induced acute lung injury (TRALI model), protein content in BAL fluids. To be noted: antibodies 1 mg/kg i.v. or n-acetyl cysteine 150 mg/kg i.v. 5 min before anti-H2d 3.5 mg/kg; BAL 2 h later. The class given is in vivo, mouse (Balb/c). The procedure:
Antibody-induced acute lung injury. Balb/c male mice (8-12 week-old) were injected i.v. with 3.5 mg/kg of anti-H2d (clone 34-1-2s) or control H2b (clone 28-8-6s) antibodies. After 2 h, BAL was performed on anesthetized mice by 3 washes with 1 ml PBS each using a 18G needle, and the protein content assessed by the bicinchoninic acid method (BCA; Pierce, Rockford, Ill.). In some experiments, mice were pre-treated as follows: rabbit anti-platelet serum (25 μl; i.p. injection; Accurate Chemicals; Westbury, N.Y.) diluted in 200 μl of PBS, 2 h prior anti-H2d treatment; 1 mg/kg i.v. injection of control or anti-P-selectin, E-selectin or anti-αMβ2 antibodies 5 min before anti-H2d; 150 mg/kg i.v. injection of n-acetyl cysteine 5 min before anti-H2d . Platelet and leukocyte counts from blood samples obtained at the end of the experiment were determined using a hematological Coulter® AC-T diff™ l Analyzer (Beckman Coulter, Miami, Fla.). None of these treatments affected circulating leukocyte counts (not shown). In the TRALI experiments involving intravital imaging of the cremasteric microcirculation, TNF-α was injected intrascrotally to allow the recruitment and imaging of inflammatory leukocytes.

Experiment [3] concerns Balb/c mice. The experiment can be described thus: Vascular permeability, FITC-dextran extravasation in cremasteric venules after anti-H2d. To be noted: TNF-α-treated mice, pre-treatment with antibodies 1 mg/kg or n-acetyl cysteine 150 mg/kg, imaged 30 min later. The experiment is classed as in vivo, mouse (Balb/c). On the procedure: Vascular permeability. To analyze anti-MHC-I-induced vascular damage, Balb/c mice were intravenously infused with 3.5 mg/kg of anti-MHC-I antibodies (to H2d or control H2b) and 1 mg of FITC-Dextran (70 Kd; Sigma-Aldrich) 210 min after TNF-α-treatment.
In some experiments, mice were pre-treated with 25 μL rabbit anti-platelet serum to deplete platelets, 1 mg/kg of control, anti-E-selectin or anti-αMβ2 antibodies, or 150 mg/kg of n-acetyl cysteine. Random fields containing small venules were imaged 30 min later using the FITC channel under a LumPlanFl 10× objective, NA 0.30 w. Images were masked over a threshold to quantify all FITC-Dextran-associated fluorescence intensity as well as the signal corresponding only to intravascular spaces. The percentage of extravasated FITC-Dextran was finally obtained using the formula: [(Total intensity−Intravascular intensity)/Total intensity]×100.

Experiment [4] has as its system ROS-producing adherent leukocytes. Briefly: In vivo detection of ROS-producing adherent leukocytes (dihydroxyrhodamine-123, MFIM). Particulars: TNF-α-treated mice; pre-treatment with anti-E-selectin 1 mg/kg or n-acetyl cysteine 150 mg/kg. More on the design: species or system mouse (Balb/c). The procedure:
In vivo detection of leukocytes producing reactive oxygen species (ROS). Balb/c mice prepared for MFIM were injected i.v. with 29 nmoles of dihydroxyrhodamine-123 (DHR; Molecular Probes, Eugene, Oreg.). DHR uptaken by leukocytes actively producing ROS converts into fluorescent rhodamine-123 (507/529 nm) which can be detected by a bright punctuated pattern in the FITC channel (FIG. 11). In some experiments, mice were pre-treated with 25 μL rabbit anti-platelet serum to deplete platelets, 1 mg/kg of anti-E-selectin antibody, or 150 mg/kg of n-acetyl cysteine. Images were captured in the brightfield and FITC channels before and after injection of 3.5 mg/kg anti-H2d antibody, and the frequency of ROS-producing cells calculated out of all adherent leukocytes in each venular segment.

For the compound `CC(C)(C)n1nc(-c2ccc(Cl)cc2)c2c(N)ncnc21` [PP2, 4-amino-5-(4-chlorophenyl)-7-(t-butyl)pyrazolo[3,4-d]pyramidine], the “nRBC (normal red blood cell) interactions with leukocytes” value in experiment [1] is “Inhibition of nRBC (normal red blood cell) interactions”.

With `CC(=O)N[C@@H](CS)C(=O)O` [n-acetyl-cysteine], the “lung injury induced by anti-H2d (protein content in BAL fluids)” value in the experiment with Balb/c mice [2] is reported as “completely prevented lung injury”. Further, the “vascular permeability (FITC-dextran extravasation) after anti-H2d” value in the experiment with Balb/c mice [3] is listed as “completely prevented”; in the experiment on Balb/c mice [3] (listed as N-acetyl-cysteine) it was “prevents”. The “ROS-producing adherent leukocytes after anti-H2d” value in experiment [4] is reported as “prevents ROS generation”.
